From patent publication US7704971B2, “Uracil reductase inactivators” (SmithKlineBeecham Corporation, priority 1990, dated 2010)

Tests used:
uracil reductase [1] = biological target: T1, uracil reductase (Mus musculus, UniProt Q8CHR6); experiment: Inactivation of uracil reductase in vivo (plasma uracil and thymine), mice
T1 construct: from tissue; host or cells: whole animal (mouse), endogenous enzyme
T1 sequence (Q8CHR6 1-1025): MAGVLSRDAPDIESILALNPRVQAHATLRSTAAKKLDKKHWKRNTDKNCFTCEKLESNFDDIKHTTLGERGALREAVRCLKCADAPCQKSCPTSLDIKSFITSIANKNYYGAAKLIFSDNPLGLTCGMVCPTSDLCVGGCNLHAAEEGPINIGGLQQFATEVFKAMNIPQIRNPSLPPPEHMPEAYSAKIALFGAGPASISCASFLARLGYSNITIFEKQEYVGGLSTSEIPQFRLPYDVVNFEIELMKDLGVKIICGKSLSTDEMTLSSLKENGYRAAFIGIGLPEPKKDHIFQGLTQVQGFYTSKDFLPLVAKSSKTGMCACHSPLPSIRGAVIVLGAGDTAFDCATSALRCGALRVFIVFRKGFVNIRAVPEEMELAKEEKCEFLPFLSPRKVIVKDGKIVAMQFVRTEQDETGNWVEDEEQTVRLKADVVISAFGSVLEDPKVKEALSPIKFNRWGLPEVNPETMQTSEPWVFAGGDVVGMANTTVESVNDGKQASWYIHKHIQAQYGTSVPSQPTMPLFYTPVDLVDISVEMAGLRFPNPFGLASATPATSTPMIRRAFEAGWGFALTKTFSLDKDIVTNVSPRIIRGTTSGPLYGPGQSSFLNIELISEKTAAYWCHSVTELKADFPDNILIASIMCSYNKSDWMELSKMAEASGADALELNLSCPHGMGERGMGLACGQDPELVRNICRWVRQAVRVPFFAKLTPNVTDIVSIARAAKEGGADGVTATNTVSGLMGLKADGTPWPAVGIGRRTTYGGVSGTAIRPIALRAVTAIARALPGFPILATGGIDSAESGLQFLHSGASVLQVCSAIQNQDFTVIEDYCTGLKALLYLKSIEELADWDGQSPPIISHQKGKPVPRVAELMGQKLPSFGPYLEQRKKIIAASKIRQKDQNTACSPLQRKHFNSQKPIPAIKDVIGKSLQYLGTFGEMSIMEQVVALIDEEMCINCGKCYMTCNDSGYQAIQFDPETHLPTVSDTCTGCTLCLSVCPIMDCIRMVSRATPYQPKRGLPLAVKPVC
Protocol: (§1) The maximum effect occurred at about 0.1 mg/kg p.o. in rats, at 0.5 to 1 mg/kg s.c. in mice, and at approximately 1 mg/kg intravenously (i.v.) in dogs and probably represents total inactivation of uracil reductase. These doses elevated mouse, dog, and rat plasma uracil from about 3 uM to about 50-60 uM. […] The ED50 equals 0.01 mg/kg.

uracil reductase [2] = experiment: Inactivation of uracil reductase in vivo (plasma uracil and thymine), dogs
Protocol: as §1

uracil reductase [3] = experiment: Inactivation of uracil reductase in vivo (plasma uracil and thymine), monkeys; settings: monkeys dosed with small amounts
Protocol: as §1

dose at which the maximum effect on plasma uracil and thymine occurred (uracil reductase [1]; mice, s.c.): 0.5 to 1 mg/kg
plasma uracil (uracil reductase [1]; mouse, at dose of maximum effect, elevated from about 3 uM): 50 to 60 µM
Compound: C#Cc1c[nH]c(=O)[nH]c1=O [5-ethynyluracil]
plasma uracil (uracil reductase [2]; dog, at dose of maximum effect, elevated from about 3 uM): 50 to 60 µM
dose at which the maximum effect on plasma uracil and thymine occurred (uracil reductase [2]; dogs, intravenously (i.v.)): approximately 1 mg/kg
plasma uracil and thymine levels (uracil reductase [3]): greatly elevated
